# According to paper PMC7320180, “Hydroxamic acid derivatives as HDAC1, HDAC6 and HDAC8 inhibitors with antiproliferative activity in cancer cell lines” (Scientific Reports, 2020):
# Test system: HepG2 cells
# Assay: MTT cytotoxicity test, HepG2
# Assay type: cell-based
# Settings: Homo sapiens, HepG2, 72 h; MTT, 3 days; read-out: IC50 (µM) HepG2
# Protocol: (§1) All compounds were evaluated in triplicate using six points, 1/3 dilutions, with the highest concentration of 50 µM. The triplicate measurements were placed in three different 96-plates, and 1% DMSO was used as a negative control.
# (§2) The first sets of […] (GH38, GH18, GH27, FH38, FH18, […] and FH37) were evaluated in different cancer cell lines: HepG2, MCF-7, SH-SY5Y, MIA PaCa-2, and […]. Furthermore, the second series of eight compounds were evaluated using seven cell lines: SH-SY5Y which is a neuroblastoma cell line; HepG2, a hepatocellular carcinoma cell line; MIA PaCa-2, a human pancreatic carcinoma cell line; MCF-7, a breast cancer cell line; HCC1954, a basal-Her2+ breast carcinoma cell line; RCC4-VA, a renal carcinoma cell line with a VHL mutation; and RCC4-VHL, a renal carcinoma cell without the VHL mutation (wild type). The cells used were seeded in 96-well plates and left for 24 h (5% CO2 and 90% humidity, 50000 cells/well) and incubated for 3 days to study the cytotoxicity.
row,SMILES,IC50 [µM]
1,"CCCCc1ccc(C(=O)N[C@@H](Cc2ccc(F)cc2)C(=O)NO)cc1 [YSL-116, (S)-4-butyl-N-(3-(4-fluorophenyl)-1-(hydroxyamino)-1-oxopropan-2-yl)benzamide]",18
2,"CCCCc1ccc(C(=O)N[C@@H](Cc2ccc(I)cc2)C(=O)NO)cc1 [YSL-121, (S)-4-butyl-N-(1-(hydroxyamino)-3-(4-iodophenyl)-1-oxopropan-2-yl)benzamide]",41.1
3,"CCCCc1ccc(C(=O)N[C@@H](Cc2ccc([N+](=O)[O-])cc2)C(=O)NO)cc1 [YSL-125, (S)-4-butyl-N-(1-(hydroxyamino)-3-(4-nitrophenyl)-1-oxopropan-2-yl)benzamide]",15.7
4,"CCCCc1ccc(C(=O)N[C@H](C(=O)NO)c2ccccc2)cc1 [YSL-129, (S)-4-butyl-N-(2-(hydroxyamino)-2-oxo-1-phenylethyl)benzamide]",> 50

# Test system: MIA PaCa-2 cells
# Assay: MTT cytotoxicity test, MIA PaCa-2
# Assay type: cell-based
# Settings: Homo sapiens, MIA PaCa-2, 72 h; MTT, 3 days; read-out: IC50 (µM) MIA PaCa-2
# Protocol: as §1, §2
row,SMILES,IC50 [µM]
1,"CCCCc1ccc(C(=O)N[C@@H](Cc2ccc(F)cc2)C(=O)NO)cc1 [YSL-116, (S)-4-butyl-N-(3-(4-fluorophenyl)-1-(hydroxyamino)-1-oxopropan-2-yl)benzamide]",> 50
2,"CCCCc1ccc(C(=O)N[C@@H](Cc2ccc(I)cc2)C(=O)NO)cc1 [YSL-121, (S)-4-butyl-N-(1-(hydroxyamino)-3-(4-iodophenyl)-1-oxopropan-2-yl)benzamide]",> 50
3,"CCCCc1ccc(C(=O)N[C@@H](Cc2ccc([N+](=O)[O-])cc2)C(=O)NO)cc1 [YSL-125, (S)-4-butyl-N-(1-(hydroxyamino)-3-(4-nitrophenyl)-1-oxopropan-2-yl)benzamide]",42.5
4,"CCCCc1ccc(C(=O)N[C@H](C(=O)NO)c2ccccc2)cc1 [YSL-129, (S)-4-butyl-N-(2-(hydroxyamino)-2-oxo-1-phenylethyl)benzamide]",> 50

# Test system: MCF-7 cells
# Assay: MTT cytotoxicity test, MCF-7
# Assay type: cell-based
# Settings: Homo sapiens, MCF7, 72 h; MTT, 3 days; read-out: IC50 (µM) MCF-7
# Protocol: as §1, §2
row,SMILES,IC50 [µM]
1,"CCCCc1ccc(C(=O)N[C@@H](Cc2ccc(F)cc2)C(=O)NO)cc1 [YSL-116, (S)-4-butyl-N-(3-(4-fluorophenyl)-1-(hydroxyamino)-1-oxopropan-2-yl)benzamide]",27.9
2,"CCCCc1ccc(C(=O)N[C@@H](Cc2ccc(I)cc2)C(=O)NO)cc1 [YSL-121, (S)-4-butyl-N-(1-(hydroxyamino)-3-(4-iodophenyl)-1-oxopropan-2-yl)benzamide]",> 50
3,"CCCCc1ccc(C(=O)N[C@@H](Cc2ccc([N+](=O)[O-])cc2)C(=O)NO)cc1 [YSL-125, (S)-4-butyl-N-(1-(hydroxyamino)-3-(4-nitrophenyl)-1-oxopropan-2-yl)benzamide]",16.6
4,"CCCCc1ccc(C(=O)N[C@H](C(=O)NO)c2ccccc2)cc1 [YSL-129, (S)-4-butyl-N-(2-(hydroxyamino)-2-oxo-1-phenylethyl)benzamide]",> 50

# Test system: HCC1954 cells
# Assay: MTT cytotoxicity test, HCC1954
# Assay type: cell-based
# Settings: Homo sapiens, HCC1954, 72 h, 3 days
# Protocol: as §1, §2
row,SMILES,IC50 [µM]
1,"CCCCc1ccc(C(=O)N[C@@H](Cc2ccc(F)cc2)C(=O)NO)cc1 [YSL-116, (S)-4-butyl-N-(3-(4-fluorophenyl)-1-(hydroxyamino)-1-oxopropan-2-yl)benzamide]",18
2,"CCCCc1ccc(C(=O)N[C@@H](Cc2ccc(I)cc2)C(=O)NO)cc1 [YSL-121, (S)-4-butyl-N-(1-(hydroxyamino)-3-(4-iodophenyl)-1-oxopropan-2-yl)benzamide]",8.49
3,"CCCCc1ccc(C(=O)N[C@@H](Cc2ccc([N+](=O)[O-])cc2)C(=O)NO)cc1 [YSL-125, (S)-4-butyl-N-(1-(hydroxyamino)-3-(4-nitrophenyl)-1-oxopropan-2-yl)benzamide]",14.8
4,"CCCCc1ccc(C(=O)N[C@H](C(=O)NO)c2ccccc2)cc1 [YSL-129, (S)-4-butyl-N-(2-(hydroxyamino)-2-oxo-1-phenylethyl)benzamide]",> 50

# Test system: RCC4-VA cells
# Assay: MTT cytotoxicity test, RCC4-VA
# Assay type: cell-based
# Settings: 72 h, 3 days
# Protocol: as §1, §2
row,SMILES,IC50 [µM]
1,"CCCCc1ccc(C(=O)N[C@@H](Cc2ccc(F)cc2)C(=O)NO)cc1 [YSL-116, (S)-4-butyl-N-(3-(4-fluorophenyl)-1-(hydroxyamino)-1-oxopropan-2-yl)benzamide]",38.9
2,"CCCCc1ccc(C(=O)N[C@@H](Cc2ccc(I)cc2)C(=O)NO)cc1 [YSL-121, (S)-4-butyl-N-(1-(hydroxyamino)-3-(4-iodophenyl)-1-oxopropan-2-yl)benzamide]",> 50
3,"CCCCc1ccc(C(=O)N[C@@H](Cc2ccc([N+](=O)[O-])cc2)C(=O)NO)cc1 [YSL-125, (S)-4-butyl-N-(1-(hydroxyamino)-3-(4-nitrophenyl)-1-oxopropan-2-yl)benzamide]",10.5
4,"CCCCc1ccc(C(=O)N[C@H](C(=O)NO)c2ccccc2)cc1 [YSL-129, (S)-4-butyl-N-(2-(hydroxyamino)-2-oxo-1-phenylethyl)benzamide]",> 50

# Test system: RCC4-VHL cells
# Assay: MTT cytotoxicity test, RCC4-VHL
# Assay type: cell-based
# Settings: Homo sapiens, 72 h, 3 days
# Protocol: as §1, §2
row,SMILES,IC50 [µM]
1,"CCCCc1ccc(C(=O)N[C@@H](Cc2ccc(F)cc2)C(=O)NO)cc1 [YSL-116, (S)-4-butyl-N-(3-(4-fluorophenyl)-1-(hydroxyamino)-1-oxopropan-2-yl)benzamide]",44.2
2,"CCCCc1ccc(C(=O)N[C@@H](Cc2ccc(I)cc2)C(=O)NO)cc1 [YSL-121, (S)-4-butyl-N-(1-(hydroxyamino)-3-(4-iodophenyl)-1-oxopropan-2-yl)benzamide]",> 50
3,"CCCCc1ccc(C(=O)N[C@@H](Cc2ccc([N+](=O)[O-])cc2)C(=O)NO)cc1 [YSL-125, (S)-4-butyl-N-(1-(hydroxyamino)-3-(4-nitrophenyl)-1-oxopropan-2-yl)benzamide]",8.02
4,"CCCCc1ccc(C(=O)N[C@H](C(=O)NO)c2ccccc2)cc1 [YSL-129, (S)-4-butyl-N-(2-(hydroxyamino)-2-oxo-1-phenylethyl)benzamide]",> 50

# Test system: SH-SY5Y cells
# Assay: MTT cytotoxicity test, SH-SY5Y
# Assay type: cell-based
# Settings: Homo sapiens, 72 h, 3 days
# Protocol: as §1, §2
row,SMILES,IC50 [µM]
1,"CCCCc1ccc(C(=O)N[C@@H](Cc2ccc(F)cc2)C(=O)NO)cc1 [YSL-116, (S)-4-butyl-N-(3-(4-fluorophenyl)-1-(hydroxyamino)-1-oxopropan-2-yl)benzamide]",19.6
2,"CCCCc1ccc(C(=O)N[C@@H](Cc2ccc(I)cc2)C(=O)NO)cc1 [YSL-121, (S)-4-butyl-N-(1-(hydroxyamino)-3-(4-iodophenyl)-1-oxopropan-2-yl)benzamide]",1.41
3,"CCCCc1ccc(C(=O)N[C@@H](Cc2ccc([N+](=O)[O-])cc2)C(=O)NO)cc1 [YSL-125, (S)-4-butyl-N-(1-(hydroxyamino)-3-(4-nitrophenyl)-1-oxopropan-2-yl)benzamide]",6.5
4,"CCCCc1ccc(C(=O)N[C@H](C(=O)NO)c2ccccc2)cc1 [YSL-129, (S)-4-butyl-N-(2-(hydroxyamino)-2-oxo-1-phenylethyl)benzamide]",> 50

# Test system: cancer cell lines
# Assay: Antiproliferative effect, cell line not stated
# Assay type: cell-based
# Settings: second series, seven cancer cell lines
# Protocol: as §1, §2
row,SMILES,biological activity
1,"CCCCc1ccc(C(=O)N[C@H](C(=O)NO)c2ccccc2)cc1 [YSL-129, (S)-4-butyl-N-(2-(hydroxyamino)-2-oxo-1-phenylethyl)benzamide]",did not show biological activity
